Peptide text beside a SMILES is read from it.
| SMILES | melting point [°C] |
| --- | --- |
| c1ccc(C2=NN(c3ccccc3)CN2c2ccccc2)cc1 | 150 |
| O=C(Cl)c1cccnc1Oc1ccccc1 | 90 to 91 |
| Nc1ccc(Nc2ccccc2)cc1 | 74 |
| CCOC(=O)NC1C(N(C)C)C2CCC1(C)C2(C)C (configuration not stated) | 237 |
| N#Cc1ccccc1-n1cccc1 | 51 |
| Cc1ccc(/C=C2\CCC/C(=C\c3ccc(C)s3)C2=O)s1 | 166 |
| CCCCCCCCCCCCCCCl | 4.9 |
| O=C1C(=Cc2ccc(Cl)cc2)SC(=S)N1CNc1ccc([N+](=O)[O-])cc1 | 216 to 217 |
| COc1ccc(C2Cc3ccccc3C(=O)O2)cc1 (configuration not stated) | 108 |
| O=C(O)c1cc(-c2ccc(Br)cc2)oc1C(F)(F)F | 201 to 203 |
| Nc1nn2c(C(F)(F)F)cc(-c3cccs3)nc2c1/N=N/c1ccc(F)cc1 | 220 |
| C/C(OCCc1ccccc1)=C(/C#N)c1ccccc1 | 118 |
| COc1ccc(C2(C)C=C(C)N=N2)cc1 (configuration not stated) | 70 |
| CN(C)C=C[N+](=O)[O-] | 103 to 105 |
| O=C(Cl)c1cccc(S(=O)(=O)Cl)c1 | 18 to 20 |
| CCCC(C)C(O)CC (configuration not stated) | -123 |
| O=C(O)c1ccccc1OC1CCOCC1 | 53 to 54 |
| OC1(c2ccccc2)Cc2ccccc21 (configuration not stated) | 68 |
| CC12CCC(O)CC1CCC1C2C(O)CC2(C)C(C3=CC(=O)OC3)CCC12O (configuration not stated) | 280 |
| O=C(O)CCc1ccc(F)cc1 | 90 |
| CC/C(=N\NC(N)=O)C1CC2(C)CCC1C2(C)C (configuration not stated) | 222 |
| O=[N+]([O-])c1ccc2c(c1)Cc1cc([N+](=O)[O-])ccc1-2 | 334 |
| COc1ccc2c(c1O)CN1CCC(=O)CC1C2O (configuration not stated) | 157 |
| CSc1nc(N)cc(Cl)n1 | 130 to 134 |
| Cc1ccc(C(=O)c2nn(-c3ccccc3)/c(=N\N=Cc3ccco3)s2)cc1 | 113 |
| CCCCOC(=O)CC(O)(CC(=O)OCCCC)C(=O)OCCCC | -20 |

| SMILES | melting point [°C] |
| --- | --- |
| O=C(C1=NOC2C(=O)N(c3ccc(Cl)cc3)C(=O)C12)c1ccc(Cl)cc1 (configuration not stated) | 152 |
| CC1(C)OC(C)(C(O)(c2ccccc2)c2ccccc2)CCC1C(=O)O (configuration not stated) | 163 |
| COc1ccc(CC(N)=S)cc1OC | 136 to 138 |
| COc1cc(C2c3cc4c(cc3C(O)C3COC(=O)C23)OCO4)cc(OC)c1OC (configuration not stated) | 228 |
| CC(=O)C(=NNc1ccccc1)c1cc(C(=NNc2ccccc2)C(C)=O)c([N+](=O)[O-])cc1[N+](=O)[O-] | 215 |
| Cc1cc(C)nc(S)n1 | 213 to 217 |
| C#CCN1C(=O)COc2cc(F)c(N3C(=O)C4=C(CCCC4)C3=O)cc21 | 203 |
| FC(F)(Cl)C(F)(Cl)C(F)(F)Cl | -72 |
| C[C@H](N)C(=O)N[C@@H](C)C(=O)O (H-Ala-Ala-OH) | 286 to 288 |
| O=[N+]([O-])c1ccccc1-c1onc(-c2ccccc2)c1-c1ccccc1 | 127 |
| NNC(=O)CN1c2ccccc2Sc2ccccc21 | 216 to 218 |
| O=[N+]([O-])c1ccc(Cl)cc1O | 41 |
| Cc1ccc(O)c(C)n1 | 210 to 212 |
| O=C(O)CCc1ccccc1Br | 96 to 98 |
| CC(C)(C)OC(=O)N[C@@H](CC(=O)O)c1ccc(Br)cc1 | 144 |
| CC(C)CC1=CC(=Cc2ccc(-c3ccccc3)o2)C(=O)O1 | 75 to 76 |
| C/C(=N\Nc1ccc([N+](=O)[O-])cc1[N+](=O)[O-])c1ccccc1O | 259 |
| Clc1cc2ccccc2c2ccccc12 | 46 to 50 |
| CCNc1nc2c(cc1C(=O)OC)c(=O)oc1ccccc12 | 210 |
| CC1CC=CC2(O1)OC1CC(=O)OC1C1(O)C(=O)c3ccccc3C(=O)C21O (configuration not stated) | 238 |
| COc1ccccc1-c1nnc2n1NCS2 | 123 |
| COc1cc(N=C=S)cc(OC)c1 | 50.5 |
| COc1ccc2ccccc2c1C#N | 94 to 98 |
| Oc1cccc(O)c1Cc1c(O)cccc1O | 255 |
| N#Cc1ccc(S(=O)(=O)Cl)c(Cl)c1 | 103 |
| CC(=O)c1cc(-c2ccc(Cl)cc2)oc1C | 114 to 115 |

| SMILES | melting point [°C] |
| --- | --- |
| Cc1cccc(O)n1 | 159 |
| O=C1N[C@H]2CC[C@@H]1C2 | 76.2 |
| C[Si](O)(c1ccccc1)c1ccccc1 | 167 |
| CC(=O)C(C(=O)OC1CC(C)CCC1C(C)C)C(C)C(C(C)=O)C(=O)OC1CC(C)CCC1C(C)C (configuration not stated) | 200 |
| COC(=O)c1ccc(C(=O)OC)c(N)c1 | 132 to 134 |
| OCC(CO)(CO)CBr | 76 |
| Cc1c(C)c(C)c2c(c1C)CC2(C)O (configuration not stated) | 90 |
| CC12C=CCC1C1CCC3CC(O)CCC3(C)C1CC2 (configuration not stated) | 143 |
| S=C=Nc1ccc(-n2cccn2)cc1 | 97 to 99 |
| Cn1c(/C(C#N)=N/Nc2ccc(C(=O)O)cc2)nc2ccccc21 | 200 |
| CC(=O)C(=Nc1ccccc1)c1cc(C(=Nc2ccccc2)C(C)=O)c([N+](=O)[O-])cc1[N+](=O)[O-] | 174 to 175 |
| CCC(C(=O)Nc1cccc2ccccc12)C1CCC(OC)CC1 (configuration not stated) | 163 |
| CSC#N | -5 |
| CSc1nc2ccccc2c(=O)n1C | 65 to 67 |
| Cc1cc(C)nc(NS(=O)(=O)c2ccc(N)cc2)n1 | 200 |
| OCCCc1ccncc1 | 37 |
| Cc1cc2c(C)ccc(C)c2cc1C | 64 |
| Cc1c(C)c(Br)c2ccccc2c1Br | 164 |
| Cc1cc(C)c(CC(=NOCC(=O)O)c2cc3ccccc3o2)c(C)c1 | 143 to 144 |
| C/C(=N\Nc1ccccc1)c1nc2c(ccc3ccccc32)nc1C | 209 |
| O=C1COc2cccnc2N1 | 206 |
| CCOC(=O)c1cnc(C(F)(F)F)nc1Cl | 36 to 37 |
| O=C1CCCCCCCC1 | 34 |
| C(=NCCN=Cc1ccccc1)c1ccccc1 | 52 to 54 |
| Cc1ccc(/C=C(\C(N)=O)c2nc3ccccc3s2)cc1 | 148 |
| CCOC(=O)CCC(C)C1CCC2C3C(O)C(Br)C4CC(OC(C)=O)CCC4(C)C3CC(OC(C)=O)C12C (configuration not stated) | 164 to 167 |

| SMILES | melting point [°C] |
| --- | --- |
| C=C1C(C)CCC2(C)C3=C(C(=O)C4(CC4C)C(OC(C)=O)C3=O)C(OC(C)=O)C(O)C12 (configuration not stated) | 233 |
| CCOCCCN | -70 |
| O=C(NC(=S)c1ccc[nH]1)Nc1ccccc1 | 205 to 208 |
| BrCc1nc2ccccc2s1 | 47 |
| CCCCC(CC)CNCC(CC)CCCC (configuration not stated) | -60 |
| Cn1ccnc1CO | 107 to 111 |
| CSCCC(NS(=O)(=O)c1ccc(C)cc1)C(=O)O (racemic) | 105 to 108 |
| CN(C)C(=O)NC1CC2CC1C1CCCC21 (configuration not stated) | 177 |
| Nc1c(S(=O)(=O)c2ccccc2)csc1C(=O)O | 174 to 176 |
| CNC(=O)c1cc(C)cc(Cl)c1NC(=O)c1cc(Br)nn1-c1ncccc1Cl | 209 |
| CC(C)C(C)(C)Cl | -10 |
| O=S(=O)(O)CCS(=O)(=O)O | 173 |
| Cc1ccc(C=C2C(N)=NC(=O)N=C2N)cc1 | 172 to 173 |
| CC(=O)c1ccc(F)c(Cl)c1 | 42 to 44 |
| O=C(NC1CCCCC1)C(Br)(C(F)(F)F)C(F)(F)F | 87 |
| O=C(NC(Cc1cccs1)C(=O)O)OCC1c2ccccc2-c2ccccc21 (configuration not stated) | 169 |
| O=S1OCCO1 | -11 |
| Nc1nn2c(C(F)(F)F)cc(=O)[nH]c2c1/N=N/c1cccc(C(F)(F)F)c1 | 291 |
| Nc1nn(-c2ccccc2)c2nc3ccccc3nc12 | 210 |
| CC1N=C(S)N2C(C)N=C(S)N12 (configuration not stated) | 182 to 184 |
| CCOC(=O)C(=O)C=P(c1ccccc1)(c1ccccc1)c1ccccc1 | 176 |
| Oc1cc(C(F)(F)F)nc2cc(Cl)cc(Cl)c12 | 230 |
| CC(C)(C)c1cc(C(=O)NN)n(Cc2ccc(F)cc2)n1 | 183 to 185 |
| O=CNC1CC=CCC(NC=O)CC=CC1 (configuration not stated) | 289 to 290 |
| CCCCOc1ccc(/N=N/c2ccc(CCCC)cc2)cc1 | 64 to 66 |
| Nc1ccc(-n2cccc2)cc1 | 81 |

| SMILES | melting point [°C] |
| --- | --- |
| O=S(=O)(Cl)c1cccc(Cl)c1 | 21 |
| COc1cc2c(cc1OC)C(C)=NCC2 | 103 to 106 |
| C#C[C@@]1(O)CC[C@@H]2[C@@H]3CC[C@@H]4CC(=O)CC[C@]4(C)[C@H]3CC[C@@]21C | 220 to 221 |
| CC(Br)C(C)(C)Br (configuration not stated) | 11 |
| CCCCc1nc(CO)c[nH]1 | 94 to 97 |
| CC1(C)CC(C(N)=O)C(C)(C)N1 (configuration not stated) | 129 to 131 |
| Nc1nnc(C2CCC2)[nH]1 | 153 to 155 |
| COc1ccc(-c2nnc3n2NC(c2ccc([N+](=O)[O-])cc2)S3)cc1 (configuration not stated) | 209 to 211 |
| CCOC(=O)NNC(=O)NC1CCCCC1 | 115 to 117 |
| CCCCC(O)(CCCC)CCCC | 20 |
| CC1(C)OC(C)(C(O)C2CCCCC2)CCC1C(=O)O (configuration not stated) | 181 |
| O=C(Nc1ccc(Cl)c(Cl)c1)c1cc(Cl)ccc1O | 247 |
| CSc1nc2ncc(C(=O)O)c(N)n2n1 | 278 to 281 |
| O=C(CCc1ccccc1)/C(=N\O)c1ccccc1 | 129 to 130 |
| O=C(O)c1cc([N+](=O)[O-])c(O)c([N+](=O)[O-])c1 | 250 |
| CCC(C(=O)O)c1ccccc1C(=O)O (configuration not stated) | 170 |
| CCCCC(O)C(=O)O (configuration not stated) | 61 |
| COc1ccccc1OCC(N)=O | 142 |
| Cc1ccc(O)c(C(O)Cc2ccccc2)c1 (configuration not stated) | 83 |
| CCc1c(Br)c(Br)c(Br)c(Br)c1Br | 138 |
| CC(C)(C)NC(=O)NN | 119 to 120 |
| COc1cc(N)ccc1[N+](=O)[O-] | 127 |
| Nc1ccc(-n2cccn2)cc1 | 54 to 55 |
